Structures can show the parent of a compound that is named as a salt.
Tests used:
GSK-3 = test: binding affinity comparison with previous compounds, isoform not stated; format: biochemical; conditions: relative to [18F]CNBI (4)
Method: The inhibitory effect of [^18F]—CNBI (4) and [^18F]—CNPI (25) (as synthesized as described above) and [^18F]CNPIFE (28) (as synthesized as shown in FIG. 10) on kinase activity was measured. […] Determination of IC50 was determined as follows. The phosphorylation of glycogen synthase substrate by human glycogen synthase kinase α (GSK-3α) or human glycogen synthase kinase β (GSK-3β) was performed using human GSK-3α/β Kinase Enzyme Assay System (Promega Corporation, Madison, WI) in the presence of GSK-3α/β probes (0-400 nM). The phosphorylation of glycogen synthase substrate was quantified using ADP-Glo™ Kinase assay system (Promega Corporation, Madison, WI). IC50 of GSK-3α/β probes was determined from resulting dose response curve and IC50 curve fitting tool of GraphPad Prism 10 (GraphPad Software, San Diego, CA). (See Stein et al., “Comparison of [^18F]F-CNBI and [^18F]F-CNPIFE as Positron Emission Tomography Probes for Noninvasive Imaging of Glycogen Synthase Kinase-3 in Normal Mice”, Eur. J. Org. Chem. 2022).
It can be seen that [^18F]CNPIFE (28) has better purity (about 99% purity), better binding affinity (6×), and better blood brain barrier permeability (6×) compared to previous compounds such as [^18F]CNBI (4). The standard uptake is very close to 1, and to the gold standard value for [N-Methyl-^11C]2-(4′-methylaminophenyl)-6-hydroxybenzothiazole also known as [^11C] […]

[1] = test system: various tau isoforms and other proteins involved in neurodegeneration; test: affinity towards tau isoforms and other proteins involved in neurodegeneration; format: binding
Method: The affinity of [^18F]CNPIFE (28) towards various tau isoforms and other proteins involved in neurodegeneration was measured.

[2] = serum stability by rad-TLC, human serum; format: in vitro ADME; conditions: 37° C., up to 120 min
Method: (§1) The stability of both the probes in mouse and human serums was also measured along with a control at 0 min, 30 min, 60 min, and 120 min using rad-TLC as discussed later below. It was observed that [^18F]F-CNBI was stable >92% up to 120 min.
(§2) Serum Stability Analysis: Stability analysis of [^18F]F-CNBI and [^18F]F-CNPIFE were assessed in human and mouse serums. To perform this stability assay, 100 μL of [^18F]F-CNBI (˜0.74 MBq) or 100 μL of [^18F]F-CNPIFE (˜3.70 MBq) was added to 100 μL of human or mouse serum in a microcentrifuge tube. The resultant mixture of radiotracer and serum was incubated at 37° C. for 120 min. To assess the stability of the probes, a small aliquot (˜0.5 μL) was taken out from the mixture in duplicate at 0 min, 30 min, 60 min and 120 min during incubation, and analyzed on a rad-TLC using 1:9 methanol: chloroform as a mobile phase using i-TLC to estimate the radio-stability of [^18F]F-CNBI or [^18F]F-CNPIFE at different time points post-incubation. For control, 100 μL of [^18F]F-CNBI (˜0.74 MBq) was taken in a microcentrifuge without dilution or 100 μL of [^18F]F-CNPIFE (˜3.70 MBq) was added to 100 μL deionized water in a microcentrifuge tube. Both the controls, were incubated at 25° C. for 120 min. At 0 min, 30 min, 60 min and 120 min during incubation, small aliquot (˜0.5 μL) was taken from the controls in duplicate and rad-TLC was performed as mentioned above. […]

[3] = serum stability by rad-TLC, mouse serum; format: in vitro ADME; conditions: 37° C., up to 120 min
Method: as §1, §2

[4] = in vivo PET imaging in mice (Example 1), brain uptake; conditions: mouse brain
Method: Initial in vivo study in mouse model: Initial in vivo PET imaging studies were conducted in mice at different time points. The uptake of the [^18F]CNPIFE (28) probe is expressed as a standard uptake value (SUV).
In vivo study in mouse model: In vivo PET imaging studies were conducted in mice at different time points to compare the SUV for [^18F]—CNBI (4) and [^18F]CNPIFE (28).

[5] = dynamic micro-PET imaging and biodistribution in normal FVB/NJ mice with and without self-blocking; format: in vivo, mouse; conditions: for effect of co-administration of the reference compound on brain uptake: self-blocking study
Method: To pursue this, [^18F]F-CNBI and [^18F]F-CNPIFE were evaluated in the normal FVB/NJ mouse model.
The uptake of [^18F]F-CNPIFE (SUV=0.48±0.09; n=5) in brain was 2.5-fold higher than [^18F]F-CNBI (SUV=0.19±0.06; n=6) as early as 5 min post-injection. This difference increased with time: 4.8-fold higher SUV for [^18F]F-CNPIFE (SUV=0.48±0.11; n=5) as compared to [^18F]F-CNBI (SUV=0.10±0.01; n=6) at 15 min which further increased to 9.5-fold difference at 30 min (see FIG. 21). […] The differences in uptakes of [^18F]F-CNPIFE and [^18F]F-CNBI in the brain and liver likely relate to the difference in their chemical structures (compounds 4 and 28). Greater accumulation of [^18F]F-CNPIFE in the brain relative to [^18F]F-CNBI was consistent with its higher BBB permeability value indicated by the PAMPA assay (see Table 1).
To further understand the characteristics of the uptake of these PET probes in the brain, self-blocking studies with corresponding non-radiolabeled reference compounds were performed. In general, co-administration of [^18F]F-CNBI and [^18F]F-CNPIFE with their corresponding reference compounds, [^19F]F-CNBI and [^19F]F-CNPIFE, respectively, were expected to decrease the uptake of radiotracers in the brain. […] However, a non-significant trend in increase in brain uptake of [^18F]F-CNPIFE can be noticed on coadministration of nonradioactive [^19F]F-CNPIFE with the PET probe [^18F]F-CNPIFE. […] We hypothesize that enhanced brain uptake with additional administration of nonradioactive form of the tracer could be attributed to the binding of [^19F]F-CNBI with normally expressed GSK-3α/β in extremities and allowing relatively greater levels of [^18F]F-CNBI to be taken up by the brain as a peripheral effect.
In vivo study: Biodistribution of [^18F]F-CNBI and [^18F]F-CNPIFE were assessed in brain and in liver of normal FVB/NJ mice (The Jackson Laboratory, Bar Harbor, ME) with and without co administration of unlabeled reference compounds [^19F]F-CNBI (200 μg and 300 μg) and [^19F]F-CNPIFE (25 μg) in separate groups of animals. Stock solutions of [^19F]F-CNPIFE (26 mM) and [^19F]F-CNBI (25 mM) were prepared in the dimethyl sulfoxide (DMSO). For blocking studies with [^19F]F-CNBI, 200 μg (530.5 nmol) or 300 μg (795.8 nmol) of [^19F]F-CNBI (nonradioactive reference compound) was added to the PET probe [^18F]F-CNBI self-containing ˜9.3 nmol [^19F]F-CNBI in the final formulation volume of ˜100 μL. For blocking with [^19F]F-CNPIFE, 25 μg (59 nmol) of [^19F]F-CNPIFE was added to the PET probe [^18F]F-CNPIFE self-containing to 0.8-1.0 nmol of [^19F]F-CNPIFE in the final formulation volume of ˜100 μL. The final formulation containing both PET probes and their nonradioactive reference compounds were prepared in 0.9% saline isotonic solution before tail vein injection. Immediately after the tail vein injection of the radiotracers, animals were subjected to a dynamic micro-PET imaging for 30 min using a small animal micro-PET/X-ray system (Sofie BioSystems Genesys4, Culver City, CA, USA). The PET images were visualized and analyzed using image analysis software, Amide's a Medical Image Data Examiner—AMIDE [Ref. 29]. PET images at 5 min, 10 min, 15 min, 20 min, 25 min, and 30 min post-injection were normalized to the standardized uptake value (SUV), where SUV=(Concentration of dose in tissue (μCi/g)/(Injected dose (μCi)/Weight of the animal (g)) and presented as coronal, transverse and sagittal sectional image.

[6] = PAMPA, pH 7.4
Description: The blood brain permeability was expressed as permeability coefficient, P (10-6 cm/s) and −log Pe.

[7] = FVB/NJ mice, 5 min post-injection
[8] = FVB/NJ mice, 15 min post-injection
[9] = FVB/NJ mice, 30 min post-injection, without coadministration of reference compound

O=C(Nc1cnccc1-c1ccc(OCC[18F])cc1)c1ccnc(NC(=O)C2CC2)c1 [[^18F]F-CNPIFE]
better binding affinity compared to previous compounds such as [18F]CNBI (4) (GSK-3): 6 × | binding with various tau isoforms and other proteins involved in neurodegeneration [1]: no to minimum binding | stability in human serum [2]: > 83% | stability in mouse serum [3]: > 83% | uptake in the brain (SUV) [4]: 0.9 SUV | brain uptake, fold higher than [18F]F-CNBI ([5]; 5 min post-injection): 2.5 fold | brain uptake, fold higher than [18F]F-CNBI ([5]; 15 min post-injection): 4.8 fold | brain uptake, fold higher than [18F]F-CNBI ([5]; 30 min post-injection): 9.5 fold | brain uptake (SUV) ([5]; 30 min post-injection, coadministration of 25 μg [19F]F-CNPIFE): 0.88±0.14 SUV | brain uptake (SUV) [5, 7]: 0.48±0.09 SUV | brain uptake (SUV) [5, 8]: 0.48±0.11 SUV | brain uptake (SUV) [5, 9]: 0.76±0.16 SUV | effect of co-administration of the reference compound on brain uptake [5]: no significant difference

CC(C)NCC(O)COc1cccc2ccccc12 (stereo not drawn) [Propranolol HCl]
Permeability coefficient, P (10^−6 cm/s) Average ± SD [6]: 32±1 10^−6 cm/s

O=C(Nc1cnccc1-c1ccc([18F])nc1)c1ccnc(NC(=O)C2CC2)c1 [[^18F]F-CNBI, 2-(cyclopropanecarboxamido)-N-(6-(fluoro-^18F)-[3,4′-bipyridin]-3′-yl)isonicotinamide]
stability in human serum [2]: > 92% | stability in mouse serum [3]: > 92% | uptake in the brain (SUV) [4]: 0.4 SUV | fold difference of brain uptake with blocking (coadministration of [19F]F-CNBI) ([5]; 30 min post-injection, 200-300 μg [19F]F-CNBI): 2.5-3.0 fold | brain uptake (SUV) ([5]; 30 min post-injection, co-injected with 300 μg [19F]F-CNBI): 0.24±0.01 SUV | brain uptake (SUV) ([5]; 30 min post-injection, coadministration of 200 μg [19F]F-CNBI): 0.20±0.01 SUV | brain uptake (SUV) [5, 7]: 0.19±0.06 SUV | brain uptake (SUV) [5, 8]: 0.10±0.01 SUV | brain uptake (SUV) [5, 9]: 0.08±0.005 SUV | liver uptake (SUV) ([5]; co-injected with 200 μg [19F]F-CNBI): 4.93±0.52 SUV | liver uptake (SUV) ([5]; co-injected with 300 μg [19F]F-CNBI): 3.89±0.60 SUV | liver uptake (SUV) ([5]; same animals as brain 30 min, without coadministration of [19F]F-CNBI): 10.15±2.87 SUV | effect of co-administration of the reference compound on brain uptake [5]: significant increase
